# How the values were obtained:
# Test in all cases: relative viability (nuclei count vs DMSO), 5 days (fraction); higher = more cells survive
# NCI-H1650 = tested on: NCI-H1650
# How it was run: (§1)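 Nuclei were stained with Hoechst during a one-step fixation (final 0.05% Triton X-100, 1% formaldehyde, 1 ug/ml Hoechst) carried out 5 days after dosing, then counted on 4× images. The cells, lung cancer lines in 1536-well plates, had been dosed by pin tool the day after seeding with one drug alone or a fixed anchor-drug dose plus five library-drug doses (not always all listed) in √10 steps. Relative viability is the nuclei count in treated wells divided by that in vehicle wells, and each value is the median of duplicate plates.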
# HCC-44 = tested on: HCC-44
# How it was run: as §1
# NCI-H441 = tested on: NCI-H441
# How it was run: as §1
# 201T = tested on: 201T
# How it was run: as §1
# NCI-H2085 = tested on: NCI-H2085
# How it was run: as §1
# COR-L23 = tested on: COR-L23
# How it was run: as §1
# NCI-H1563 = tested on: NCI-H1563
# How it was run: as §1
# NCI-H2347 = tested on: NCI-H2347
# How it was run: as §1
# NCI-H2405 = tested on: NCI-H2405
# How it was run: as §1
# NCI-H2023 = tested on: NCI-H2023
# How it was run: as §1
# NCI-H520 = tested on: NCI-H520
# How it was run: as §1
# NCI-H3122 = tested on: NCI-H3122
# How it was run: as §1
# NCI-H1734 = tested on: NCI-H1734
# How it was run: as §1
# RERF-LC-KJ = tested on: RERF-LC-KJ
# How it was run: as §1
# H3255 = tested on: H3255
# How it was run: as §1
# NCI-H2170 = tested on: NCI-H2170
# How it was run: as §1
# EPLC-272H = tested on: EPLC-272H
# How it was run: as §1
# PC-14 = tested on: PC-14
# How it was run: as §1
# NCI-H647 = tested on: NCI-H647
# How it was run: as §1
# NCI-H1993 = tested on: NCI-H1993
# How it was run: as §1
# LOU-NH91 = tested on: LOU-NH91
# How it was run: as §1
compound,measurement,setting,value
Oc1nc(-c2ccc(C(F)(F)F)cc2)nc2c1CSCC2 [XAV939] + C[C@@H](Oc1cc(-c2cnn(C3CCNCC3)c2)cnc1N)c1c(Cl)ccc(F)c1Cl [Crizotinib] (partner 1 µM),relative viability,NCI-H1650; first compound 0.08 µM,1.1
same,relative viability,NCI-H1650; first compound 0.253 µM,0.699
same,relative viability,NCI-H1650; first compound 0.8 µM,0.948
same,relative viability,NCI-H1650; first compound 2.53 µM,0.729
same,relative viability,HCC-44; first compound 0.08 µM,0.785
same,relative viability,HCC-44; first compound 0.253 µM,0.796
same,relative viability,HCC-44; first compound 0.8 µM,0.79
same,relative viability,HCC-44; first compound 2.53 µM,0.75
same,relative viability,NCI-H441; first compound 0.08 µM,0.986
same,relative viability,NCI-H441; first compound 0.253 µM,0.724
same,relative viability,NCI-H441; first compound 0.8 µM,0.66
same,relative viability,NCI-H441; first compound 2.53 µM,0.779
same,relative viability,201T; first compound 0.08 µM,0.995
same,relative viability,201T; first compound 0.253 µM,1.03
same,relative viability,201T; first compound 0.8 µM,0.94
same,relative viability,201T; first compound 2.53 µM,0.866
same,relative viability,NCI-H2085; first compound 0.08 µM,0.961
same,relative viability,NCI-H2085; first compound 0.253 µM,0.826
same,relative viability,NCI-H2085; first compound 0.8 µM,0.917
same,relative viability,NCI-H2085; first compound 2.53 µM,0.734
same,relative viability,COR-L23; first compound 0.08 µM,0.77
same,relative viability,COR-L23; first compound 0.253 µM,0.675
same,relative viability,COR-L23; first compound 0.8 µM,0.671
same,relative viability,COR-L23; first compound 2.53 µM,0.555
same,relative viability,NCI-H1563; first compound 0.08 µM,0.834
same,relative viability,NCI-H1563; first compound 0.253 µM,0.846
same,relative viability,NCI-H1563; first compound 0.8 µM,0.789
same,relative viability,NCI-H1563; first compound 2.53 µM,0.697
same,relative viability,NCI-H2347; first compound 0.08 µM,0.692
same,relative viability,NCI-H2347; first compound 0.253 µM,0.648
same,relative viability,NCI-H2347; first compound 0.8 µM,0.75
same,relative viability,NCI-H2347; first compound 2.53 µM,0.515
same,relative viability,NCI-H2405; first compound 0.08 µM,0.906
same,relative viability,NCI-H2405; first compound 0.253 µM,0.816
same,relative viability,NCI-H2405; first compound 0.8 µM,0.808
same,relative viability,NCI-H2405; first compound 2.53 µM,0.775
same,relative viability,NCI-H2023; first compound 0.08 µM,0.598
same,relative viability,NCI-H2023; first compound 0.253 µM,0.581
same,relative viability,NCI-H2023; first compound 0.8 µM,0.468
same,relative viability,NCI-H2023; first compound 2.53 µM,0.43
same,relative viability,NCI-H520; first compound 0.08 µM,0.778
same,relative viability,NCI-H520; first compound 0.253 µM,0.665
same,relative viability,NCI-H520; first compound 0.8 µM,0.668
same,relative viability,NCI-H520; first compound 2.53 µM,0.68
same,relative viability,NCI-H3122; first compound 0.08 µM,0.286
same,relative viability,NCI-H3122; first compound 0.253 µM,0.27
same,relative viability,NCI-H3122; first compound 0.8 µM,0.238
same,relative viability,NCI-H3122; first compound 2.53 µM,0.234
same,relative viability,NCI-H1734; first compound 0.08 µM,0.725
same,relative viability,NCI-H1734; first compound 0.253 µM,0.637
same,relative viability,NCI-H1734; first compound 0.8 µM,0.662
same,relative viability,NCI-H1734; first compound 2.53 µM,0.619
same,relative viability,RERF-LC-KJ; first compound 0.08 µM,0.807
same,relative viability,RERF-LC-KJ; first compound 0.253 µM,0.82
same,relative viability,RERF-LC-KJ; first compound 0.8 µM,0.741
same,relative viability,RERF-LC-KJ; first compound 2.53 µM,0.582
same,relative viability,H3255; first compound 0.08 µM,0.942
same,relative viability,H3255; first compound 0.253 µM,0.873
same,relative viability,H3255; first compound 0.8 µM,0.725
same,relative viability,H3255; first compound 2.53 µM,0.7
same,relative viability,NCI-H2170; first compound 0.08 µM,1.28
same,relative viability,NCI-H2170; first compound 0.253 µM,1.01
same,relative viability,NCI-H2170; first compound 0.8 µM,1.02
same,relative viability,NCI-H2170; first compound 2.53 µM,0.921
same,relative viability,EPLC-272H; first compound 0.08 µM,0.956
same,relative viability,EPLC-272H; first compound 0.253 µM,0.96
same,relative viability,EPLC-272H; first compound 0.8 µM,0.995
same,relative viability,EPLC-272H; first compound 2.53 µM,0.908
same,relative viability,PC-14; first compound 0.08 µM,0.97
same,relative viability,PC-14; first compound 0.253 µM,0.818
same,relative viability,PC-14; first compound 0.8 µM,0.834
same,relative viability,PC-14; first compound 2.53 µM,0.749
same,relative viability,NCI-H647; first compound 0.08 µM,1.07
same,relative viability,NCI-H647; first compound 0.253 µM,1
same,relative viability,NCI-H647; first compound 0.8 µM,1.11
same,relative viability,NCI-H647; first compound 2.53 µM,0.9
same,relative viability,NCI-H1993; first compound 0.8 µM,0.85
same,relative viability,NCI-H1993; first compound 2.53 µM,0.768
same,relative viability,LOU-NH91; first compound 0.08 µM,0.719
same,relative viability,LOU-NH91; first compound 0.253 µM,0.708
same,relative viability,LOU-NH91; first compound 0.8 µM,0.734
same,relative viability,LOU-NH91; first compound 2.53 µM,0.699

# From the supplement of paper PMC10307832
